Measurements taken from patent US20230115176A1 (Ra Pharmaceuticals, Inc., priority 2019, published 2023).
pIC50, pKd: −log10 of the molar value. Converted amounts (≈) assume the structure as drawn.

Legend:
[1] = molecular target: T1, Human C5 (Homo sapiens, UniProt P01031); experiment: Red blood cell (RBC) hemolysis assay, luminescent (Example 13, Table 22); format: cell-based; conditions: sheep EA cells, […] C5-depleted human serum, 0.5 nM human C5, 1 hour 37° C., luminescence
T1 construct: purchased Complement Technology
T1 sequence (P01031 19-1676): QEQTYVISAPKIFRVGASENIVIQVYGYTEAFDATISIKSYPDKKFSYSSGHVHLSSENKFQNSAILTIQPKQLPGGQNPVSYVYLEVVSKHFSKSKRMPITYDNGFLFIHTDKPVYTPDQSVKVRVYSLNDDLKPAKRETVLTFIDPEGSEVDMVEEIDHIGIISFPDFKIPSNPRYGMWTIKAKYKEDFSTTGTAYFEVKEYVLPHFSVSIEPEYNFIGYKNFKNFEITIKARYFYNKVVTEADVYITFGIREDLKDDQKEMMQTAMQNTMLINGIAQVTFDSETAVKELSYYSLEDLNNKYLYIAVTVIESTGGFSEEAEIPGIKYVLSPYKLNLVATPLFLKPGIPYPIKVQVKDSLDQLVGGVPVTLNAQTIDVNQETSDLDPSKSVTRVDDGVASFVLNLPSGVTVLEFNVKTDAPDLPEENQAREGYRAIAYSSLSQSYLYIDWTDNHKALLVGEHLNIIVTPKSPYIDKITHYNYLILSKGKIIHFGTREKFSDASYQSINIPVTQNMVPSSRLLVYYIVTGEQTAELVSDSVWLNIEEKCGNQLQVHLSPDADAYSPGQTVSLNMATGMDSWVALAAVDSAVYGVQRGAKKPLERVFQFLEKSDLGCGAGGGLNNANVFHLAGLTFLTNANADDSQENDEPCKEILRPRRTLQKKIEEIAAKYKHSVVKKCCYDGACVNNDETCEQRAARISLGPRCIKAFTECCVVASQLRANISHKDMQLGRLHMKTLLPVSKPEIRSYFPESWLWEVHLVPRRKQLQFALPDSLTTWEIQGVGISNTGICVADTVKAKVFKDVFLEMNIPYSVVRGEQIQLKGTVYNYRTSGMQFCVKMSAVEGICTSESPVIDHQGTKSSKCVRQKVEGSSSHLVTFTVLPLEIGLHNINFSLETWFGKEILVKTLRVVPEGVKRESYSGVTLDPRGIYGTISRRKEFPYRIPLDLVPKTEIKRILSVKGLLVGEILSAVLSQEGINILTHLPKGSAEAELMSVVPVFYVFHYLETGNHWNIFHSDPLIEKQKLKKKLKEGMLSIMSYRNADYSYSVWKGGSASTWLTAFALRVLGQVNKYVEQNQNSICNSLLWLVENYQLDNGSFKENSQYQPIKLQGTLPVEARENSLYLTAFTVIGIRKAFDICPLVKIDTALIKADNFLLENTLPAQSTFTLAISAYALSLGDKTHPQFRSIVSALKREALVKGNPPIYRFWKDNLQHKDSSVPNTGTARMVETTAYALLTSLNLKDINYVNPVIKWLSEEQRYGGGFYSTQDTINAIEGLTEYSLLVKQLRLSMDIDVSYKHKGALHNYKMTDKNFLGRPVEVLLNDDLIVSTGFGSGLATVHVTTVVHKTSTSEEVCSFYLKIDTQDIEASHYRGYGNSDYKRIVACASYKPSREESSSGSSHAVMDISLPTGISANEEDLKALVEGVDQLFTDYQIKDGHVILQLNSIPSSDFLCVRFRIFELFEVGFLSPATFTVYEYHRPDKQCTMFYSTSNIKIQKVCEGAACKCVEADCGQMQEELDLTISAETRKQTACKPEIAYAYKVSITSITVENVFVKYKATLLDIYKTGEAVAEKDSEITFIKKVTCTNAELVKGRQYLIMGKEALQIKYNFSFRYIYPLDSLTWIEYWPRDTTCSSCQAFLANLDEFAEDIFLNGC
Excerpt: Compound CU0136 is a racemic mixture of Compound CU0186 and CU0187. Numbers in parenthesis following compound numbers indicate alternate enantiomers (as distinguished by retention time during chromatographical separation).

[2] = Kinetic solubility in PBS pH 7.4, HPLC-UV (Example 21, Table 27); format: physicochemical; conditions: phosphate buffered saline, aqueous buffer, kinetic from dmso stock, 0.5 M PBS, shaken minimum 24 h at approximately 25° C., HPLC-UV 270 nm
Summary of the method: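 Supernatant measured by HPLC-UV (270 nm) against a DMSO calibration curve of 15.6–500.0 μM after filtration. Triplicate samples were made from 10 mM DMSO stock in 0.05 M phosphate buffer pH 7.4 (5% DMSO) and shaken at least 24 h at about 25 °C.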

[3] = Permeability assay, unidirectional transport, Papp (Example 30, Table 34); format: in vitro ADME, canine; conditions: dog, pH 7.4; MDCK-WT cell monolayers, A-to-B, 3 μM test compound, 37° C., duplicate determinations
Experimental: Permeability assays were carried out to provide a preliminary indication of suitability for oral dosing and compound permeability across the blood brain barrier. Unidirectional and bidirectional compound transport across Madin Darby canine kidney (MDCK) cell monolayers was assessed. For unidirectional transport assessment, transport across MDCK wild type (MDCK-WT) cell monolayers was assessed. For bidirectional transport, transport across MDCK-MDR1 cell monolayers was assessed. MDCK-MDR1 cells express the MDR1 gene encoding the P-glycoprotein (P-gp) efflux protein.
MDCK-WT and MDCK-MDR1 cells were plated onto permeable polycarbonate supports in 12-well Costar transwell plates and allowed to grow and differentiate for 3 days. After 3 days in culture, the culture medium (DMEM supplemented with 10% FBS) was removed from both sides of the transwell inserts and cells were rinsed with warm HBSS. After the rinse step, the chambers were filled with warm transport buffer (HBSS containing 10 mM HEPES, 0.25% BSA, pH 7.4) and the plates were pre-incubated at 37° C. for 30 minutes prior to TEER (Trans Epithelial Electric Resistance) measurements.
The buffer in the donor chamber (apical side for A-to-B assay, basolateral side for B-to-A assay) was removed and replaced with the working solution (3 μM test compound and 10 μM for control compounds in transport buffer). The plates were then placed at 37° C. under light agitation. At designated time points (30, 60 and 90 min), an aliquot of transport buffer from the receiver chamber was removed and replenished with fresh transport buffer. Samples were quenched with ice-cold ACN containing internal standard and then centrifuged to pellet protein. Resulting supernatants were further diluted with 50/50 ACN/H2O (Atenolol diluted in just water) and submitted for LC-MS/MS analysis. Apparent permeability (Pap) values were calculated from duplicate determinations. Atenolol and propranolol were tested as low and […] permeability references.
Papp values indicate extent of compound permeation across monolayers.

[4] = molecular target: T2, human C5 complement protein (Homo sapiens, UniProt P01031); experiment: Surface plasmon resonance (SPR), immobilized human C5, 37° C. (Example 18, Table 24); format: binding; conditions: lowest value obtained where a range of concentrations was analyzed
T2 sequence (P01031 19-1676): as above

[5] = molecular target: T1, Human C5; experiment: Red blood cell (RBC) hemolysis assay, luminescent (Example 28, Table 32); format: cell-based; conditions: sheep EA cells, 1.5% C5-depleted human serum, 0.5 nM human C5, 1 hour at 37° C., luminescence (Table 32)
Experimental: Sheep red blood cells coated with rabbit anti-sheep erythrocyte antiserum (EA cells; Complement Technology, Tyler, Tex.) were used to assay compound inhibitory activity of the classical complement activation pathway. Briefly, the EA cells were washed once and resuspended in the same volume of GVB++ buffer (Complement Technology, Tyler, Tex.). 25 μL of EA cells were then distributed into each well of 384-well tissue culture plates using Apricot iPipette Pro (Apricot Designs; Covina, Calif.). Compounds were tested in 10 points of final concentrations ranging from 16.67 μM to 1.65 μM in a 6-fold titration series. Compounds were dispensed into 384-well plates from 6.7 mM and 3.35 μM DMSO working stocks using an HP Digital Dispenser (HP; Corvallis, Oreg.). The reactions also contained 1.5% (v/v) C5-depleted human serum (Complement Technology). Hemolysis was induced by addition of human C5 (Complement Technology) at a concentration of 0.5 nM and plates were incubated for 1 hour at 37° C. in a cell culture incubator. The extent of hemolysis was measured by ability of released hemoglobin to catalyze luminol in the presence of hydrogen peroxide. Luminescence was then measured using a plate reader. Luminescence measurements were used to prepare a dose-response curve. From the curve, the half maximal inhibitory concentration (IC50) for each compound was determined, where the IC50 represents the concentration of each compound needed to reduce red blood cell hemolysis by half.

[6] = molecular target: T2, human C5 complement protein; experiment: Surface plasmon resonance (SPR), immobilized human C5, 37° C. (Example 27, Table 31); format: binding; conditions: lowest value obtained where a range of concentrations was analyzed (Table 31)

Compound	solubility kinetic [2]	Papp A→B at 3 μM [3]	pKd [4]	pKd [6]	pIC50 [1]	pIC50 [5]
CCCCCOc1cc(N2CCCN(Cc3ccc(CC(=O)N4CCOC(CN(C)C)C4)cc3OC)C2=O)ccc1OC (racemic) [CU0136]	479 µM (≈ 286 µg/mL)	2.4 ×10⁻⁶ cm/s			7.90	
COc1cc(CC(=O)N2CCOCC2)ccc1CN1CCCN(c2ccc(OC)c(OCCCC3CC3)c2)C1=O [CU0511]	310 µM (≈ 171 µg/mL)	16.6 ×10⁻⁶ cm/s	9.33			
CCCCCOc1cc(N2CCCN(Cc3ccnc4c3c(Cl)cn4C3CCOCC3)C2=O)ccc1OC [CU0513]	< 10 µM	9.6 ×10⁻⁶ cm/s				
CCCCCOc1cc(N2CCCN(Cc3ccnc4c3c(Cl)cn4CC(=O)N3CC(O)C3)C2=O)ccc1OC [CU0518]	47 µM (≈ 26.8 µg/mL)	1.1 ×10⁻⁶ cm/s	9.09			
CCCCCOc1cc(N2CCCN(Cc3ccnc4c3c(Cl)cn4CC(=O)N3CC[C@@H](N(C)C)C3)C2=O)ccc1OC [CU0520]	366 µM (≈ 224 µg/mL)	3.9 ×10⁻⁶ cm/s				
CCCCCOc1cc(N2CCCN(Cc3ccnc4c3c(Cl)cn4CC(=O)N3CC[C@H](N(C)C)C3)C2=O)ccc1OC [CU0521]	413 µM (≈ 252 µg/mL)	3.9 ×10⁻⁶ cm/s				
COc1ccc(N2CCCN(Cc3ccnc4c3c(Cl)cn4CC(=O)N3CCOC(CN(C)C)C3)C2=O)cc1OCCCC1CC1 (stereo not drawn) [CU0523]	486 µM (≈ 317 µg/mL)	0.7 ×10⁻⁶ cm/s				
CCCCCOc1cc(N2CCCN(Cc3ccnc4c3c(Cl)cn4CC(=O)N3CCOCC3)C2=O)ccc1OC [CU0526]	< 10 µM	16.8 ×10⁻⁶ cm/s	10.28			
CCCCCOc1cc(N2CCCN(Cc3ccnc4c3c(Cl)cn4CC(=O)N3CCO[C@H](CN(C)C)C3)C2=O)ccc1OC [CU0533]	294 µM (≈ 189 µg/mL)	1.7 ×10⁻⁶ cm/s	10.25			
CCCCCOc1cc(N2CCCN(Cc3ccnc4c3c(Cl)cn4CC(=O)N3CC[C@@H](OC)C3)C2=O)ccc1OC [CU0534]	85 µM (≈ 50.8 µg/mL)	17.4 ×10⁻⁶ cm/s	9.44			
COc1cc(CC(=O)N2CCOCC2)ccc1CN1CCCN(c2ccc(OC)c(OCCCC3CCC3)c2)C1=O [CU0589]	131 µM (≈ 74.1 µg/mL)		9.52			
COc1cc(CC(=O)N2CCOCC2)ccc1CN1CCCN(c2ccc(OC)c(OCCCCC3CC3)c2)C1=O [CU0598]	< 10 µM		9.13			
COc1ccc(N2CCCN(Cc3ccnc4c3c(Cl)cn4CC(=O)N(C)C)C2=O)cc1OCCC[C@H]1C[C@@H]1C [CU0610]	37 µM (≈ 21 µg/mL)		9.68			
COc1cc(CNC(C)=O)ccc1CN1CCCN(c2ccc(OC)c(OCCCCC3CC3)c2)C1=O [CU0613]	190 µM (≈ 96.8 µg/mL)		9.27			
COc1cc(CC(=O)N(C)C)ccc1CN1CCCN(c2ccc(OC)c(OCCCCC(C)(C)C)c2)C1=O [CU0638]	30 µM (≈ 16.2 µg/mL)		10.03			
CCCCCOc1cc(N2CCCN(Cc3cccc4c3ccn4[C@H]3CCN(C)C3=O)C2=O)ccc1OC [CU0644]	450 µM (≈ 233 µg/mL)		8.95			
CCCCCOc1cc(N2CCCN(Cc3ccc(CCN4CCCC4(C)C)cc3OC)C2=O)ccc1OC [CU0671]	397 µM (≈ 213 µg/mL)		9.56			
CCCCCOc1cc(N2CCCN(Cc3cccc4c3ccn4CC3(O)CCN(CC(=O)N(C)C)CC3)C2=O)ccc1OC [CU0675]	430 µM (≈ 267 µg/mL)		9.07			

Second part, led by results:

solubility kinetic [2]	Papp A→B at 3 μM [3]	pKd [4]	pKd [6]	Compound	pIC50 [1]	pIC50 [5]
	4.7 ×10⁻⁶ cm/s			COc1cc(CC(=O)N2CC[C@H](N(C)C)C2)ccc1CN1C(=O)N(c2ccc(OC)c(OCCCC3CC3)c2)CC[C@@H]1C [SC0101]		9.05
	18.2 ×10⁻⁶ cm/s			COc1cc(Cc2ccncn2)ccc1CN1C(=O)N(c2ccc(OC)c(OCCCC3CC3)c2)CC[C@@H]1C [SC0102]		9.05
141 µM (≈ 78.4 µg/mL)	21.7 ×10⁻⁶ cm/s			CCCCCOc1cc(N2CC[C@H](C)N(Cc3ccnc4c3c(Cl)cn4CC(=O)N(C)C)C2=O)ccc1OC [SC0108]		
	2.5 ×10⁻⁶ cm/s			CCCCCOc1cc(N2CC[C@H](C)N(Cc3ccnc4c3c(Cl)cn4CC(=O)N3CC(C)(O)C3)C2=O)ccc1OC [SC0111]		8.89
252 µM (≈ 142 µg/mL)	0.1 ×10⁻⁶ cm/s			COc1cc(CC(=O)N[C@H]2CCNC2)ccc1CN1C(=O)N(c2ccc(OC)c(OCCCC3CC3)c2)CC[C@@H]1C [SC0114]		8.89
	12.6 ×10⁻⁶ cm/s			CCCCCOc1cc(N2CC[C@H](C)N(Cc3ccnc4c3c(Cl)cn4CC(=O)N3CC(N4CCOCC4)C3)C2=O)ccc1OC [SC0117]		8.85
	4.8 ×10⁻⁶ cm/s			COc1cc(CC(=O)N[C@H]2CN(C)C[C@H]2F)ccc1CN1C(=O)N(c2ccc(OC)c(OCCCC3CC3)c2)CC[C@@H]1C [SC0123]		8.82
			10.05	COc1ccc(N2CC[C@H](C)N(Cc3cccc4c3c(Cl)cn4CC(=O)N(C)C)C2=O)cc1OCCCC1CCC1 [SC0125]		8.80
266 µM (≈ 166 µg/mL)	2.2 ×10⁻⁶ cm/s			COc1cc(CC(=O)N2CCO[C@H](CN(C)C)C2)ccc1CN1C(=O)N(c2ccc(OC)c(OCCCC3CC3)c2)CC[C@@H]1C [SC0134]		8.74
	3 ×10⁻⁶ cm/s			CCN1CC[C@@H](N(C)C(=O)Cc2ccc(CN3C(=O)N(c4ccc(OC)c(OCCCC5CC5)c4)CC[C@@H]3C)c(OC)c2)C1 [SC0144]		8.68
486 µM (≈ 303 µg/mL)	2.6 ×10⁻⁶ cm/s			COc1cc(CC(=O)N2CCO[C@@H](CN(C)C)C2)ccc1CN1C(=O)N(c2ccc(OC)c(OCCCC3CC3)c2)CC[C@@H]1C [SC0146]		8.68
	0.7 ×10⁻⁶ cm/s			CCCCCOc1cc(N2CC[C@H](C)N(Cc3ccnc4c3c(Cl)cn4CC(=O)N[C@H]3CCN(C)C3)C2=O)ccc1OC [SC0147]		8.66
	3.5 ×10⁻⁶ cm/s			CCN1CC[C@H](N(C)C(=O)Cc2ccc(CN3C(=O)N(c4ccc(OC)c(OCCCC5CC5)c4)CC[C@@H]3C)c(OC)c2)C1 [SC0149]		8.66
	9.9 ×10⁻⁶ cm/s			CCCCCOc1cc(N2CC[C@H](C)N(Cc3ccnc4c3c(Cl)cn4CC(=O)N3CC(N(C)C)C3)C2=O)ccc1OC [SC0155]		8.59
348 µM (≈ 228 µg/mL)	1.3 ×10⁻⁶ cm/s			CCCCCOc1cc(N2CC[C@H](C)N(Cc3ccnc4c3c(Cl)cn4CC(=O)N3CCOC(CN(C)C)C3)C2=O)ccc1OC (stereo partly drawn) [SC0156]		8.59
			9.40	CCCCCOc1cc(N2CC(C)CN(Cc3ccc(CNC(=O)c4cnco4)cc3OC)C2=O)ccc1OC (stereo not drawn) [SC0159]		8.57
426 µM (≈ 245 µg/mL)	14.3 ×10⁻⁶ cm/s			COc1ccc(N2CC[C@H](C)N(Cc3cccc4c3ccn4CC(=O)N3CCOCC3)C2=O)cc1OCCCC1CC1 [SC0164]		8.54
			9.10	CCCCCOc1cc(N2CC[C@H](C)N(Cc3cccc4c3ccn4CC(=O)N(C)CC#N)C2=O)ccc1OC [SC0168]		8.48
	1.8 ×10⁻⁶ cm/s			CCCCCOc1cc(N2CC[C@H](C)N(Cc3cccc4c3c(Cl)cn4CC3=NCCN3C)C2=O)ccc1OC [SC0169]		8.46
			9.11	CCCCCOc1cc(N2CC(C)CN(Cc3ccc(CNC(=O)c4cocn4)cc3OC)C2=O)ccc1OC (stereo not drawn) [SC0170]		8.43
356 µM (≈ 221 µg/mL)	2 ×10⁻⁶ cm/s			CCCCCOc1cc(N2CC[C@H](C)N(Cc3cccc4c3ccn4CC(=O)N3CCO[C@@H](CN(C)C)C3)C2=O)ccc1OC [SC0171]		8.43
309 µM (≈ 192 µg/mL)	1.3 ×10⁻⁶ cm/s			CCCCCOc1cc(N2CC[C@H](C)N(Cc3cccc4c3ccn4CC(=O)N3CCO[C@H](CN(C)C)C3)C2=O)ccc1OC [SC0177]		8.33
			9.06	COc1cc(CC(N)=O)ccc1CN1CC(C)CN(c2ccc(OC)c(OCCCC3CC3)c2)C1=O (stereo not drawn) [SC0179]		8.31
			8.73	CCCCCOc1cc(N2CC(C)CN(Cc3ccc(CC(=O)N4CCCOCC4)cc3OC)C2=O)ccc1OC (stereo not drawn) [SC0186]		8.24
			8.55	CCCCCOc1cc(N2CC(CO)CN(Cc3ccc(CC(=O)N4CCCOCC4)cc3OC)C2=O)ccc1OC (stereo not drawn) [SC0190]		8.15
